Measured values: patent EP0515159A1, “Ursane derivatives, their preparation and pharmaceutical formulations thereof” (IDB HOLDING S.p.A., priority 1991, dated 1992)
Structures can show the parent of a compound that is named as a salt. Where two headings read alike, the source gives them in different places.

Legend:
[1] = system: alcohol-induced gastric lesions; assay: Alcohol-induced ulcer (gastric lesions) in the rat; type: in vivo; settings: for inhibition at 50 mg/kg: dose 50.0 mg/kg os; for inhibition at 100 mg/kg: dose 100.0 mg/kg os; for inhibition at 200 mg/kg: dose 200.0 mg/kg os; for ED50: by mouth, inhibition of alcohol-induced gastric lesions, read-out: ED₅₀ mg/kg and confidence limits (p = 0.95); for ED50 / oral therapeutic indices (LD₅₀/ED₅₀) Alcohol-induced ulcer: rat; for R: potency ratio relative to Carbenoxolone (= 1.0), alcohol-induced lesions; for inhibition at 12.5 mg/kg: dose 12.5 mg/kg os; for oral therapeutic indices (LD₅₀/ED₅₀) Alcohol-induced ulcer: oral LD50 / ED50 in alcohol-induced ulcer; for inhibition at 6.25 mg/kg: dose 6.25 mg/kg os
Experimental: The gastric lesions were induced in male Sprague-Dawley rats weighing 120-140 g, which had been fasted for 48 h, by administering 1 ml/rat of 90% alcohol by mouth. One hour after administration of the damage-inducing agent, the animals were sacrifed in an excess of ether and the stomachs opened along the major curvature; the gastric lesions were measured in mm² and expressed as the percentage of inhibition compared with the controls. The substances under investigation, suspended in 0.5% Methocel, were administered by mouth 1 hour before the alcohol.

[2] = system: Diclofenac-induced gastric ulcers; assay: Diclofenac-induced ulcer (gastric lesions) in the rat; type: in vivo; settings: for ED50: by mouth, inhibition of Diclofenac-induced gastric lesions, read-out: ED₅₀ and confidence limits (p = 0.95); for ED50 / oral therapeutic indices (LD₅₀/ED₅₀) Diclofenac-induced ulcer: rat; for % Inhibition: 1 h before 100 mg/kg Diclofenac, sacrifice 5 h after; for R: potency ratio relative to Carbenoxolone (= 1.0), Diclofenac-induced ulcers; for oral therapeutic indices (LD₅₀/ED₅₀) Diclofenac-induced ulcer: oral LD50 / ED50 in Diclofenac-induced ulcer
Experimental: Female Sprague-Dawley rats weighing 180-200 g that had been fasted for 24 h were used in this experiment. The gastric lesions were induced by a single oral dose of 100 mg/kg Diclofenac.
The animals were sacrificed 5 h after administration of the damage-inducing agent. The gastric lesions were measured in mm² and expressed as a percentage of inhibition.
The substances under investigation, suspended in 0.5% Methocel, were administered by mouth 1 h before the anti-inflammatory agent.

[3] = Antidiuretic activity: effects on urinary excretion in the rat; type: in vivo; settings: for Electrolyte output, mEq/6h/rat K^+ / Electrolyte output, mEq/6h/rat Na^+ / Na^+/K^+ / Urine volume (0-6 h): urine collected 6 hours after fifth dose
Experimental: The effect of compounds IIa and IIb (M=Na) on urinary excretion was investigated in male Sprague-Dawley rats weighing 180-200 g. […] Carbenoxolone in a dose of 200 mg/kg was used as a reference substance. The animals were fasted for 18 h before the last dose. The urine was collected for 6 hours after administration of the fifth dose and its content of Na⁺ and K⁺ was measured.

[4] = Acute toxicity in the rat; settings: in vivo; for LD50 at 14 days: both sexes, Sprague-Dawley; for LD50 at 336 h: 14 days observation
Experimental: The acute toxicity of compounds IIa and IIb (M=Na) was evaluated in the rat after oral and intraperitoneal administration.
Each experimental group comprised 5 male and 5 female Sprague-Dawley rats. After being treated, the animals were kept under observation for 14 days and the dose that caused the death of 50% of the animals (LD₅₀) was calculated by the probit method (Finney D J. in "Probit Analysis", Cambridge University Press, 3rd Ed., Cambridge, 1971). The results shown in Table 4 indicate that, after intraperitoneal administration, the toxicity of both compounds is similar to that of the reference product.

[5] = Rattus norvegicus, 1 hour before 90% alcohol, lesions in mm² vs controls
[6] = 200 mg/kg os once a day for 5 days
[7] = 20 mg/kg os once a day for 5 days
[8] = ip, intraperitoneal, probit method, read-out: LD50 (confidence limits p = 0.95) mg/kg i.p
[9] = oral, 1000 mg/kg (LD10) = maximum dose that could be administered (2 doses of 500 mg/kg 1 h apart), read-out: LD50 (confidence limits p = 0.95) mg/kg p.o

Structure (SMILES)	inhibition at 50 mg/kg [1, 5] [%]	inhibition at 100 mg/kg [1, 5] [%]	inhibition at 200 mg/kg [1, 5] [%]	ED50 [1] [mg/kg]	R [1]	inhibition at 12.5 mg/kg [1, 5] [%]	ED50 [2] [mg/kg]	% Inhibition ([2]; dose 3.125 mg/kg os) [%]	% Inhibition ([2]; dose 6.25 mg/kg os) [%]	% Inhibition ([2]; dose 12.5 mg/kg os) [%]	% Inhibition ([2]; dose 25.0 mg/kg os) [%]	R [2]	oral therapeutic indices (LD₅₀/ED₅₀) Alcohol-induced ulcer [1]	oral therapeutic indices (LD₅₀/ED₅₀) Diclofenac-induced ulcer [2]	Electrolyte output, mEq/6h/rat K^+ [3, 7] [mEq/6h/rat]	Electrolyte output, mEq/6h/rat Na^+ [3, 7] [mEq/6h/rat]	Na^+/K^+ [3, 7]	Urine volume (0-6 h) [3, 7] [mL]	inhibition at 6.25 mg/kg [1, 5] [%]	LD50 at 336 h [4, 8] [mg/kg]	also measured
C[C@H]1[C@H](C)CC[C@]2(C(=O)O)CC[C@]3(C)C(=CC=C4[C@@]5(C)CC[C@H](OC(=O)CCC(=O)O)C(C)(C)[C@@H]5CC[C@]43C)[C@H]12 [3β-(carboxy-propionyloxy)-ursa-9(11),12-dien-28-oic acid]	28.4	45.6	76.3	106	0.8																inhibition at 400 mg/kg ([1]; Rattus norvegicus, dose 400.0 mg/kg os, 1 hour before 90% alcohol, lesions in mm² vs controls): 80.1%
CC1(C)[C@@H](OC(=O)c2ccccc2C(=O)O)CC[C@]2(C)[C@H]3CC=C4[C@@H]5C[C@@](C)(COC(=O)c6ccccc6C(=O)O)CC[C@]5(C)CC[C@@]4(C)[C@]3(C)CC[C@@H]12 [18β-olean-12-ene-3β,3-0-diol di-0-hemiphthalate]	70.2			14.6	5.6	40.8	38.9	1.5	5.9	21.5	29.8	3.5									inhibition at 0.8 mg/kg ([1]; Rattus norvegicus, dose 0.8 mg/kg os, 1 hour before 90% alcohol, lesions in mm² vs controls): 12%; inhibition at 3.12 mg/kg ([1]; Rattus norvegicus, dose 3.12 mg/kg os, 1 hour before 90% alcohol, lesions in mm² vs controls): 32%
CC1(C)[C@@H](OC(=O)CCC(=O)O)CC[C@]2(C)[C@H]3C(=O)C=C4[C@@H]5C[C@@](C)(C(=O)O)CC[C@]5(C)CC[C@@]4(C)[C@]3(C)CC[C@@H]12 [Carbenoxolone, sodium salt of the hemisuccinate of β-glycyrrhetic acid]	34.9	45	83	90.4	1.0		140					1.0	34	22							Electrolyte output, mEq/6h/rat K^+ [3, 6]: 0.12±0.01 mEq/6h/rat; Electrolyte output, mEq/6h/rat Na^+ [3, 6]: 0.10±0.01 mEq/6h/rat; Na^+/K^+ [3, 6]: 0.8; Urine volume (0-6 h) [3, 6]: 1.5 ± 0.2 mL; Na^+/K^+ ([3]; 200 mg/kg os once a day for 5 days, listed as carbenoxolone): 0.5; reducing diuresis ([3]; 200 mg/kg, versus controls): 67%; reduction in the excretion of Na⁺ ([3]; 200 mg/kg, versus controls): 72%; % Inhibition ([2]; dose 100.0 mg/kg os): 37.2%; % Inhibition ([2]; dose 150.0 mg/kg os): 45.6%; % Inhibition ([2]; dose 200.0 mg/kg os): 72.7%; % Inhibition ([2]; dose 400.0 mg/kg os): 90.9%; LD50 at 14 days ([4]; ip): 92 mg/kg; LD50 at 14 days ([4]; po): 3100 mg/kg
C[C@H]1[C@H](C)CC[C@]2(COC(=O)c3ccccc3C(=O)O)CC[C@]3(C)C(=CC[C@@H]4[C@@]5(C)CC[C@H](OC(=O)c6ccccc6C(=O)O)C(C)(C)[C@@H]5CC[C@]43C)[C@H]12 [IIa (M = Na), disodium salt of the dihemiphthalate or urs-12-ene-3β,28-diol]				3.7	25.6		7	8.9	28.3			16.3	> 270	> 143	0.14±0.01	0.21±0.01	1.5	3.0 ± 0.2	67.4	60	inhibition at 2 mg/kg ([1]; Rattus norvegicus, dose 2.0 mg/kg os, 1 hour before 90% alcohol, lesions in mm² vs controls): 16.1%; inhibition at 2.5 mg/kg ([1]; Rattus norvegicus, dose 2.5 mg/kg os, 1 hour before 90% alcohol, lesions in mm² vs controls): 22.1%; inhibition at 3.125 mg/kg ([1]; Rattus norvegicus, dose 3.125 mg/kg os, 1 hour before 90% alcohol, lesions in mm² vs controls): 65.2%; % Inhibition ([2]; dose 7.5 mg/kg os): 62.3%; % Inhibition ([2]; dose 9.0 mg/kg os): 67.9%; LD50 at 336 h [4, 9]: > 1000 mg/kg
C[C@H]1[C@H](C)CC[C@]2(COC(=O)c3ccccc3C(=O)O)CC[C@]3(C)C(=CC=C4[C@@]5(C)CC[C@H](OC(=O)c6ccccc6C(=O)O)C(C)(C)[C@@H]5CC[C@]43C)[C@H]12 [IIb (M = Na), disodium salt of the dihemiphthalate of ursa-9(11),12-diene-3β,28-diol]				16.8	5.5	32.5	6.4	37.4	43.3	72.0	73.3	17.8	> 60	> 156	0.13±0.02	0.19±0.02	1.5	2.8 ± 0.3	10.7	75	inhibition at 16 mg/kg ([1]; Rattus norvegicus, dose 16.0 mg/kg os, 1 hour before 90% alcohol, lesions in mm² vs controls): 38.2%; inhibition at 25 mg/kg ([1]; Rattus norvegicus, dose 25.0 mg/kg os, 1 hour before 90% alcohol, lesions in mm² vs controls): 76.6%; LD50 at 336 h [4, 9]: > 1000 mg/kg
